Assay results published in patent US10010516B2, “Method for regulating retinal endothelial cell viability” (The University of Tennessee Research Foundation, priority 2012, dated 2018).
Entries after “also recorded” stand apart in the source; their conditions may differ.

What was measured:
p53 = experiment: Immunoblot of phosphorylated and total p53 in RECs; type: cell-based, human
paxillin = experiment: Immunoblot of paxillin (Y118) phosphorylation in irradiated RECs; type: cell-based, human; conditions: irradiated RECs 30 Gy, 24 hours, P<0.05
Y79 retinoblastoma cells = experiment: Cell death ELISA in Y79 retinoblastoma cells; type: cell-based, human; conditions: melphalan 0.8, 1 or 4 μg/mL tested
RECs [1] = test system: RECs
NF-κB = experiment: Western blot of phospho-NF-κB / total NF-κB in RECs; type: cell-based, human; conditions: melphalan 4 μg/mL
Procedure: Western blotting. After appropriate treatments and rinsing with cold phosphate-buffered saline, REC were lysed in the lysis buffer containing the protease and phosphatase inhibitors and scraped into the tubes. Equal amounts of protein from the cell or tissue extracts were separated on the pre-cast tris-glycine gel (Invitrogen, Carlsbad, Calif.), blotted onto a nitrocellulose membrane. After blocking in TBST (10 mM Tris-HCl buffer, pH 8.0, 150 mM NaCl, 0.1% Tween 20) and 5% (w/v) BSA, the membrane was treated with NF-κB, Phospho-NF-κB p38^MAPK, Phospho-p38^MAPK antibodies (1:500) followed by incubation with horseradish peroxidase labeled secondary antibodies. The antigen-antibody complexes were detected using chemilluminescence reagent kit (Thermo Scientific).
Transfections. REC were transfected with ICAM-1 siRNA, TNF-α siRNA, or NF-κB siRNA at a final concentration of 20 nM using Lipofectamine™ RNAiMAX Transfection Reagent according to the manufacturer's instructions. After transfection, cells were starved in MVGS-free Medium 131 for 24 hours and used as required.

RECs [2] = conditions: melphalan 4 μg/mL; cited from earlier work
ICAM-1 = ICAM-1 ELISA / Western blot in RECs treated with melphalan; type: cell-based, human; conditions: TNF-α siRNA or etanercept + melphalan

OCc1ccc(-c2ccc(-c3ccc(CO)s3)o2)s1 [RITA]
p53 accumulation (p53; RITA 10 μM for four hours vs untreated RECs, P<0.05): significantly enhanced

Oc1ccc(-c2nc(-c3ccncc3)c(-c3ccc(F)cc3)[nH]2)cc1 [SB202190]
effect on RITA-induced p53 accumulation (p53; concomitant treatment with RITA, P>0.05): did not significantly alter
phosphorylation of paxillin at Y118 (paxillin): significantly reduced

N[C@@H](Cc1ccc(N(CCCl)CCCl)cc1)C(=O)O [melphalan]
apoptosis of Y79 retinoblastoma cells (Y79 retinoblastoma cells): 4 μg/mL produced maximal apoptosis and best induces apoptosis at 4 μg/mL
DNA fragmentation in RECs (RECs [1]; melphalan 4 μg/mL, 24 hours): did increase DNA fragmentation
induction of NF-κB phosphorylation (NF-κB): time-dependent
time of maximum increase in NF-κB Ser536 phosphorylation (NF-κB): 30 min
increase in REC death (RECs [2]): greater than 6 fold

etanercept
REC apoptosis after melphalan treatment (etanercept) (RECs [1]; etanercept + melphalan): did not reach statistical significance
melphalan-induced ICAM-1 levels with TNF-α inhibition (ICAM-1): neither TNF-α siRNA nor etanercept could reduce ICAM-1 levels; also recorded: Neither TNFα siRNA nor etanercept reduced ICAM-1 levels
